System: 695427-040-R-J1-PDC complex spheroids, viability percent T/C
Experiment: Anticancer human tumor 695427-040-R-J1-PDC patient-derived colon adenocarcinoma cell line growth inhibition [GQUAD]
Conditions: for IC50: curve of first compound; for viability, T/C: stronger effect = lower value
Outline: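 Viability of tumor cells grown as complex spheroids with endothelial and stromal cells, exposed to drug combinations. Top concentration at or near clinical Cmax (else 10 microM), diluted in half-log increments.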

[1] = second compound 0.0316 µM, first compound 0.0316 µM
[2] = second compound 0.0316 µM, first compound 0.1 µM
[3] = second compound 0.0316 µM, first compound 0.316 µM
[4] = second compound 0.0316 µM, first compound 1 µM
[5] = second compound 0.0316 µM, first compound 3.16 µM
[6] = second compound 0.0316 µM, first compound 10 µM
[7] = second compound 0.1 µM, first compound 0.0316 µM
[8] = second compound 0.1 µM, first compound 0.1 µM
[9] = second compound 0.1 µM, first compound 0.316 µM
[10] = second compound 0.1 µM, first compound 1 µM
[11] = second compound 0.1 µM, first compound 3.16 µM
[12] = second compound 0.1 µM, first compound 10 µM
[13] = second compound 0.316 µM, first compound 0.0316 µM
[14] = second compound 0.316 µM, first compound 0.1 µM
[15] = second compound 0.316 µM, first compound 0.316 µM
[16] = second compound 0.316 µM, first compound 1 µM
[17] = second compound 0.316 µM, first compound 3.16 µM
[18] = second compound 0.316 µM, first compound 10 µM
[19] = second compound 1 µM, first compound 0.0316 µM
[20] = second compound 1 µM, first compound 0.1 µM
[21] = second compound 1 µM, first compound 0.316 µM
[22] = second compound 1 µM, first compound 1 µM
[23] = second compound 1 µM, first compound 3.16 µM
[24] = second compound 1 µM, first compound 10 µM
[25] = second compound 3.16 µM, first compound 0.0316 µM
[26] = second compound 3.16 µM, first compound 0.1 µM
[27] = second compound 3.16 µM, first compound 0.316 µM
[28] = second compound 3.16 µM, first compound 1 µM
[29] = second compound 3.16 µM, first compound 3.16 µM
[30] = second compound 3.16 µM, first compound 10 µM
[31] = second compound 10 µM, first compound 0.0316 µM
[32] = second compound 10 µM, first compound 0.1 µM
[33] = second compound 10 µM, first compound 0.316 µM
[34] = second compound 10 µM, first compound 1 µM
[35] = second compound 10 µM, first compound 3.16 µM
[36] = second compound 10 µM, first compound 10 µM
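Also: spheroids exposed to compounds for seven days before readout.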

**Q.** For `C=CCn1c(=O)c2cnc(Nc3ccc(N4CCN(C)CC4)cc3)nc2n1-c1cccc(C(C)(C)O)n1` + Cc1cnc(CNC(=O)c2c(=O)c3ccc(N4CCCN(C)CC4)nc3n3c2sc2ccccc23)cn1, which IC50 (second compound 0.0316 µM) is on record?
**A.** 1.72 µM

**Q.** And the IC50 (second compound 0.1 µM)?
**A.** 2.45 µM

**Q.** What about the IC50 (second compound 0.316 µM) of the same compound?
**A.** 5.16 µM

**Q.** What about the IC50 (second compound 1 µM) of the same compound?
**A.** 8.26 µM

**Q.** And the IC50 (second compound 3.16 µM)?
**A.** < 0.0316 µM

**Q.** And the IC50 (second compound 10 µM)?
**A.** < 0.0316 µM

**Q.** And the viability, T/C [1]?
**A.** 88.3%

**Q.** And the viability, T/C [2]?
**A.** 78.8%

**Q.** And the viability, T/C [3]?
**A.** 73.2%

**Q.** And the viability, T/C [4]?
**A.** 51.7%

**Q.** And the viability, T/C [5]?
**A.** 47%

**Q.** What about the viability, T/C [6] of the same compound?
**A.** 41.1%

**Q.** And the viability, T/C [7]?
**A.** 79.5%

**Q.** And the viability, T/C [8]?
**A.** 71%

**Q.** What about the viability, T/C [9] of the same compound?
**A.** 65.2%

**Q.** What about the viability, T/C [10] of the same compound?
**A.** 49.4%

**Q.** And the viability, T/C [11]?
**A.** 53.8%

**Q.** What about the viability, T/C [12] of the same compound?
**A.** 40.8%

**Q.** What about the viability, T/C [13] of the same compound?
**A.** 74.8%

**Q.** And the viability, T/C [14]?
**A.** 55%

**Q.** What about the viability, T/C [15] of the same compound?
**A.** 67.6%

**Q.** And the viability, T/C [16]?
**A.** 58.5%

**Q.** And the viability, T/C [17]?
**A.** 59.3%

**Q.** What about the viability, T/C [18] of the same compound?
**A.** 40.6%

**Q.** What about the viability, T/C [19] of the same compound?
**A.** 51.6%

**Q.** What about the viability, T/C [20] of the same compound?
**A.** 57.2%

**Q.** What about the viability, T/C [21] of the same compound?
**A.** 62%

**Q.** And the viability, T/C [22]?
**A.** 43%

**Q.** And the viability, T/C [23]?
**A.** 55.2%

**Q.** And the viability, T/C [24]?
**A.** 49.5%

**Q.** And the viability, T/C [25]?
**A.** 32.3%

**Q.** And the viability, T/C [26]?
**A.** 49.6%

**Q.** And the viability, T/C [27]?
**A.** 48.6%

**Q.** What about the viability, T/C [28] of the same compound?
**A.** 33.4%

**Q.** What about the viability, T/C [29] of the same compound?
**A.** 28.8%

**Q.** And the viability, T/C [30]?
**A.** 28.6%

**Q.** And the viability, T/C [31]?
**A.** 9.19%

**Q.** And the viability, T/C [32]?
**A.** 15.3%

**Q.** What about the viability, T/C [33] of the same compound?
**A.** 32.1%

**Q.** What about the viability, T/C [34] of the same compound?
**A.** 25%

**Q.** And the viability, T/C [35]?
**A.** 14.7%

**Q.** And the viability, T/C [36]?
**A.** 0.75%

**Q.** For `CCCS(=O)(=O)Nc1ccc(F)c(C(=O)c2c[nH]c3ncc(-c4ccc(Cl)cc4)cc23)c1F` + Cc1cnc(CNC(=O)c2c(=O)c3ccc(N4CCCN(C)CC4)nc3n3c2sc2ccccc23)cn1, which IC50 (second compound 0.0316 µM) is on record?
**A.** 8.41 µM

**Q.** And the IC50 (second compound 0.1 µM)?
**A.** > 10 µM

**Q.** And the IC50 (second compound 0.316 µM)?
**A.** > 10 µM

**Q.** What about the IC50 (second compound 1 µM) of the same compound?
**A.** 6.32 µM

**Q.** What about the IC50 (second compound 3.16 µM) of the same compound?
**A.** 3.27 µM

**Q.** What about the IC50 (second compound 10 µM) of the same compound?
**A.** < 0.0316 µM

**Q.** And the viability, T/C [1]?
**A.** 101%

**Q.** What about the viability, T/C [2] of the same compound?
**A.** 93.9%

**Q.** And the viability, T/C [3]?
**A.** 107%

**Q.** What about the viability, T/C [4] of the same compound?
**A.** 96%

**Q.** What about the viability, T/C [5] of the same compound?
**A.** 110%

**Q.** What about the viability, T/C [6] of the same compound?
**A.** 40.9%

**Q.** What about the viability, T/C [7] of the same compound?
**A.** 105%

**Q.** And the viability, T/C [8]?
**A.** 70.4%

**Q.** What about the viability, T/C [9] of the same compound?
**A.** 78.9%

**Q.** What about the viability, T/C [10] of the same compound?
**A.** 82.4%

**Q.** And the viability, T/C [11]?
**A.** 98.1%

**Q.** And the viability, T/C [12]?
**A.** 52.8%

**Q.** And the viability, T/C [13]?
**A.** 85%

**Q.** What about the viability, T/C [14] of the same compound?
**A.** 64.3%

**Q.** And the viability, T/C [15]?
**A.** 82.9%

**Q.** And the viability, T/C [16]?
**A.** 91.3%

**Q.** And the viability, T/C [17]?
**A.** 101%

**Q.** What about the viability, T/C [18] of the same compound?
**A.** 55.1%

**Q.** And the viability, T/C [19]?
**A.** 64.3%

**Q.** And the viability, T/C [20]?
**A.** 76.5%

**Q.** And the viability, T/C [21]?
**A.** 74.1%

**Q.** And the viability, T/C [22]?
**A.** 67.3%

**Q.** What about the viability, T/C [23] of the same compound?
**A.** 96.4%

**Q.** What about the viability, T/C [24] of the same compound?
**A.** 33%

**Q.** And the viability, T/C [25]?
**A.** 43.9%

**Q.** And the viability, T/C [26]?
**A.** 42.7%

**Q.** What about the viability, T/C [27] of the same compound?
**A.** 55.2%

**Q.** And the viability, T/C [28]?
**A.** 63.4%

**Q.** What about the viability, T/C [29] of the same compound?
**A.** 52.7%

**Q.** And the viability, T/C [30]?
**A.** 0.43%

**Q.** What about the viability, T/C [31] of the same compound?
**A.** 32.7%

**Q.** What about the viability, T/C [32] of the same compound?
**A.** 34.5%

**Q.** What about the viability, T/C [33] of the same compound?
**A.** 38.7%

**Q.** What about the viability, T/C [34] of the same compound?
**A.** 34.6%

**Q.** What about the viability, T/C [35] of the same compound?
**A.** 22.8%

**Q.** What about the viability, T/C [36] of the same compound?
**A.** 0.26%
